Measured values published in paper PMC3199943, “Screening the MayBridge Rule of 3 Fragment Library for Compounds That Interact with the Trypanosoma brucei myo-Inositol-3-Phosphate Synthase and/or Show Trypanocidal Activity” (Molecular Biology International, 2011).

System: HeLa cells
Test: cells
Conditions: Homo sapiens, HeLa, 65 h, read-out: HeLa Cells Alamar Blue
Method in brief: (§1)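 Alamar Blue read-out after a 5 h dye incubation that followed ~65 h compound exposure. Cells: HeLa or A549, 2 × 10^4/well, DMEM + 10% FCS + 2 mM L-Glutamine.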

SMILES	viability at 500 µM
NCc1ccoc1 [compound 5, 3‐furylmethylamine]	101 ± 5.3%
Cc1cc(N)[nH]n1 [compound 6, 3‐methyl‐1H‐pyrazol‐5‐amine]	102 ± 3.3%
Cn1nccc1N [compound 7, 1‐methyl‐1H‐pyrazol‐5‐ylamine]	106 ± 6.2%
Cn1ccc(N)n1 [compound 8, 1‐methyl‐1H‐pyrazol‐3‐amine]	107 ± 7.8%
CC1OCCC1=O (stereo not shown) [compound 11, 2‐methyltetrahydrofuran‐3‐one]	101 ± 5.4%
O=C1CCOCC1 [compound 12, tetrahydro‐4H‐pyran‐4‐one]	100 ± 3.5%
C1CNCCNC1 [compound 13, 1,4‐diazepane]	88.5 ± 11.1%
Cn1cncc1C#N [compound 15, 1‐methyl‐1H‐imidazole‐5‐carbonitrile]	101 ± 9.5%
Cc1ccc(N)nc1 [compound 16, 5‐methylpyridin‐2‐amine]	101 ± 1.1%
Cc1ccc[nH]c1=O [compound 17, 3‐methyl‐1,2‐dihydropyridin‐2‐one]	106 ± 11.4%
OCc1ccncc1 [compound 18, 4‐pyridinylmethanol]	104 ± 3.9%
Cc1cccc(O)n1 [compound 19, 6‐methylpyridin‐2‐ol]	103 ± 7.6%
CC(=O)c1cc[nH]c1 [compound 20, 1-(1H-pyrrol-3-yl)ethan-1-one]	102 ± 4.3%
OCc1cnccn1 [compound 23, 2‐pyrazinylmethanol]	77.5 ± 12.3%
Cc1cc(N)n(C)n1 [compound 26, 1,3‐dimethyl‐1H‐pyrazol‐5‐amine]	85.5 ± 9.4%
O=C(O)c1ccco1 [compound 27, 2‐furoic acid]	95.7 ± 9.4%
O=C(O)c1ccoc1 [compound 28, 3-furoic acid]	48.2 ± 11.8%
Cc1ccc(CO)o1 [compound 30, (5-methyl-2-furyl)methanol]	23.3 ± 18.6%
CN1CCN(C)C1=O [compound 35, 1,3‐dimethylimidazolidin‐2‐one]	101 ± 6.6%
CC1CNC(C)CN1 (stereo not shown) [compound 36, 2,5‐dimethylpiperazine]	91.3 ± 12.1%
O=C(O)[C@H]1CCCN1 [compound 37, D‐proline]	94.8 ± 10.1%
OCc1nccs1 [compound 38, 1,3‐thiazol‐2‐ylmethanol]	99.4 ± 4.1%
Cc1nnc(N)s1 [compound 39, 5‐methyl‐1,3,4‐thiadiazol‐2‐amine]	105 ± 14.5%
O=C(O)C1CCCO1 (stereo not shown) [compound 42, tetrahydro‐2‐furancarboxylic acid]	81.9 ± 17%

Same assay, conditions: Homo sapiens, HeLa, 65 h, read-out: HeLa Cells Alamar Blue (% survival)

SMILES	viability at 500 µM
CC(=O)c1cc[nH]c1 [compound 20, 1-(1H-pyrrol-3-yl)ethan-1-one]	102 ± 4.3%
O=C(O)c1ccoc1 [compound 28, 3-furoic acid]	48.2 ± 11.8%
Cc1ccc(CO)o1 [compound 30, (5-methyl-2-furyl)methanol]	23.3 ± 18.6%

Same assay, conditions: Homo sapiens, HeLa, read-out: HeLa ED50

SMILES	CC50
CC(=O)c1cc[nH]c1 [compound 20, 1-(1H-pyrrol-3-yl)ethan-1-one]	> 5 mM

System: A549 cells
Test: Cytotoxicity against A549 cells, Alamar Blue
Assay type: cell-based
Conditions: Homo sapiens, A549, 65 h; Supplementary Table 1; compound 0.5 mM; percentage of controls (n=1)
Method in brief: as §1

SMILES	viability at 500 µM
NCc1ccoc1 [compound 5, 3‐furylmethylamine]	113%
Cc1cc(N)[nH]n1 [compound 6, 3‐methyl‐1H‐pyrazol‐5‐amine]	121%
Cn1nccc1N [compound 7, 1‐methyl‐1H‐pyrazol‐5‐ylamine]	124%
Cn1ccc(N)n1 [compound 8, 1‐methyl‐1H‐pyrazol‐3‐amine]	122%
CC1OCCC1=O (stereo not shown) [compound 11, 2‐methyltetrahydrofuran‐3‐one]	85.3%
O=C1CCOCC1 [compound 12, tetrahydro‐4H‐pyran‐4‐one]	97.4%
C1CNCCNC1 [compound 13, 1,4‐diazepane]	82.4%
Cn1cncc1C#N [compound 15, 1‐methyl‐1H‐imidazole‐5‐carbonitrile]	90%
Cc1ccc(N)nc1 [compound 16, 5‐methylpyridin‐2‐amine]	89.4%
Cc1ccc[nH]c1=O [compound 17, 3‐methyl‐1,2‐dihydropyridin‐2‐one]	87.2%
OCc1ccncc1 [compound 18, 4‐pyridinylmethanol]	102%
Cc1cccc(O)n1 [compound 19, 6‐methylpyridin‐2‐ol]	85.6%
CC(=O)c1cc[nH]c1 [compound 20, 1-(1H-pyrrol-3-yl)ethan-1-one]	121%
OCc1cnccn1 [compound 23, 2‐pyrazinylmethanol]	75.9%
Cc1cc(N)n(C)n1 [compound 26, 1,3‐dimethyl‐1H‐pyrazol‐5‐amine]	70.1%
O=C(O)c1ccco1 [compound 27, 2‐furoic acid]	107%
O=C(O)c1ccoc1 [compound 28, 3-furoic acid]	111%
Cc1ccc(CO)o1 [compound 30, (5-methyl-2-furyl)methanol]	23.7%
CN1CCN(C)C1=O [compound 35, 1,3‐dimethylimidazolidin‐2‐one]	92.7%
CC1CNC(C)CN1 (stereo not shown) [compound 36, 2,5‐dimethylpiperazine]	76.6%
O=C(O)[C@H]1CCCN1 [compound 37, D‐proline]	78.6%
OCc1nccs1 [compound 38, 1,3‐thiazol‐2‐ylmethanol]	95%
Cc1nnc(N)s1 [compound 39, 5‐methyl‐1,3,4‐thiadiazol‐2‐amine]	72.3%
O=C(O)C1CCCO1 (stereo not shown) [compound 42, tetrahydro‐2‐furancarboxylic acid]	75.1%

Molecular target: T1, TbINO1 (Trypanosoma brucei brucei, UniProt Q5QQ46)
T1 sequence (Q5QQ46 1-528): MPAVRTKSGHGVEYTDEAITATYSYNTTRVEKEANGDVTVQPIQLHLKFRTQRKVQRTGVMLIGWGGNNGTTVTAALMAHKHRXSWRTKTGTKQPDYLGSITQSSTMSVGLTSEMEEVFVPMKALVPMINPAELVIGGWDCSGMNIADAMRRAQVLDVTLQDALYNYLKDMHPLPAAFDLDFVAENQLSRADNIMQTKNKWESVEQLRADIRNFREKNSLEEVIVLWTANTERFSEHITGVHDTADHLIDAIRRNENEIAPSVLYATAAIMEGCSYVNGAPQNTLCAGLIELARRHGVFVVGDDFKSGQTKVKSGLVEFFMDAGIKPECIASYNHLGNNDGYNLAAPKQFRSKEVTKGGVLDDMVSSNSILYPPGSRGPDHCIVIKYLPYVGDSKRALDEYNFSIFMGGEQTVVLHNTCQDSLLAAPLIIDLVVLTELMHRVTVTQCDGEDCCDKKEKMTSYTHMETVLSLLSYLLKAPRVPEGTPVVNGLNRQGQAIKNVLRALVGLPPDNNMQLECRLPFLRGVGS
Test: biochemical
Assay type: binding
Conditions: Supplementary Table 1; compound 1mM; mean ± SD from Boltzman curve fitting; read-out: Tb Ino1 Tm Shift [˚C]

SMILES	ΔTm at 1000 µM
CN1CCN(C)C1=O [compound 35, 1,3‐dimethylimidazolidin‐2‐one]	0.04 ± 0.07 °C

Same assay, conditions: read-out: Tb Ino1 Tm Shift [˚C]

ΔTm at 1000 µM	SMILES
0.3 ± 0.06 °C	NCc1ccoc1 [compound 5, 3‐furylmethylamine]
0.2 ± 0.06 °C	Cc1cc(N)[nH]n1 [compound 6, 3‐methyl‐1H‐pyrazol‐5‐amine]
0.12 ± 0.06 °C	Cn1nccc1N [compound 7, 1‐methyl‐1H‐pyrazol‐5‐ylamine]
0.09 ± 0.07 °C	Cn1ccc(N)n1 [compound 8, 1‐methyl‐1H‐pyrazol‐3‐amine]
0.77 ± 0.06 °C	CC1OCCC1=O (stereo not shown) [compound 11, 2‐methyltetrahydrofuran‐3‐one]
0.23 ± 0.07 °C	O=C1CCOCC1 [compound 12, tetrahydro‐4H‐pyran‐4‐one]
0.4 ± 0.07 °C	C1CNCCNC1 [compound 13, 1,4‐diazepane]
0.08 ± 0.07 °C	Cn1cncc1C#N [compound 15, 1‐methyl‐1H‐imidazole‐5‐carbonitrile]
0.12 ± 0.06 °C	Cc1ccc(N)nc1 [compound 16, 5‐methylpyridin‐2‐amine]
0.81 ± 0.08 °C	Cc1ccc[nH]c1=O [compound 17, 3‐methyl‐1,2‐dihydropyridin‐2‐one]
0.36 ± 0.07 °C	OCc1ccncc1 [compound 18, 4‐pyridinylmethanol]
0.09 ± 0.08 °C	Cc1cccc(O)n1 [compound 19, 6‐methylpyridin‐2‐ol]
0.27 ± 0.07 °C	OCc1cnccn1 [compound 23, 2‐pyrazinylmethanol]
0.54 ± 0.07 °C	Cc1cc(N)n(C)n1 [compound 26, 1,3‐dimethyl‐1H‐pyrazol‐5‐amine]
0.17 ± 0.06 °C	O=C(O)c1ccco1 [compound 27, 2‐furoic acid]
0.18 ± 0.08 °C	CC1CNC(C)CN1 (stereo not shown) [compound 36, 2,5‐dimethylpiperazine]
0.41 ± 0.06 °C	O=C(O)[C@H]1CCCN1 [compound 37, D‐proline]
0.18 ± 0.09 °C	OCc1nccs1 [compound 38, 1,3‐thiazol‐2‐ylmethanol]
0.31 ± 0.08 °C	Cc1nnc(N)s1 [compound 39, 5‐methyl‐1,3,4‐thiadiazol‐2‐amine]
0.3 ± 0.08 °C	O=C(O)C1CCCO1 (stereo not shown) [compound 42, tetrahydro‐2‐furancarboxylic acid]

Same assay, conditions: read-out: TbIno1 Tm shift [°C]

ΔTm at 1000 µM	SMILES
1.88 ± 0.08 °C	CC(=O)c1cc[nH]c1 [compound 20, 1-(1H-pyrrol-3-yl)ethan-1-one]
3.72 ± 0.08 °C	O=C(O)c1ccoc1 [compound 28, 3-furoic acid]
3.79 ± 0.08 °C	Cc1ccc(CO)o1 [compound 30, (5-methyl-2-furyl)methanol]
